Reference: paper PMC11475369, “Exploring the Potential of Synthetic Cannabinoids: Modulation of Biological Activity of Normal and Cancerous Human Colon Epithelial Cells” (Cells, 2024)

How the values were obtained:
Format in all cases: cell-based, human
HT29 cells [1] = assay: Flow cytometry annexin V-FITC/PI, cell death types in HT29 cells; conditions: HT29, 25 μg/mL, 24 h; for viability at 25 µg/mL: Homo sapiens, HT-29, read-out: Percentage of viable cells
Protocol: In a further flow cytometric study measuring normal and tumor cell death types, the cells were exposed to the cannabinoids at a concentration of 25 μg/mL for 24 h.
The annexin V-fluorescein isothiocyanate (FITC)/propidium iodide (PI) apoptosis kit (BD Biosciences, BD Pharmingen™, San Jose, CA, USA) was used for the quantitative analysis of cannabinoid-induced cell death.
For the analyses, both adhered (after detaching the cells with 10 mM EDTA in PBS w/o Ca^2+ and Mg^2+ ions solution) and floating cells were collected after 24 h of incubation with the tested cannabinoids. After collection, the cells were gently centrifuged (1000 rpm/5 min.). Next, the supernatant was discarded, and the cell pellet was suspended in warm PBS w/o Ca^2+ and Mg^2+ ions and incubated for 5 min. at room temperature. The centrifugation procedure was repeated again and, following the manufacturer’s procedure, the cells were suspended in 100 μL of 1X Annexin V Binding Buffer with 5 μL of FITC Annexin V […] and 5 μL of propidium iodide (PI) (5 mM). The preparation was gently vortexed and incubated at room temperature for 15 min. in the dark. After that time, the cells were subjected to cytometric analysis. Before dosing the cells into the cytometer, 400 μL of 1X Binding Buffer was added. The cells were analyzed using a flow cytometer (BD FACSCalibur) with CellQuest Pro Version 6.0 software within 1 h after the staining was completed.

HT29 cells [2] = assay: Nitric oxide (NOx) release in HT29 culture, Griess method; conditions: HT29 cancer cells, 0–200 μg/mL, 24 h
Protocol: In this spectrophotometric method, the stable end products (nitrate and nitrite) were analyzed in the normal and tumor culture supernatants after 24 h of incubation of the cells with the cannabinoids in the concentration range of 0–200 μg/mL. The Griess reaction was applied. This method involves a 2-step reaction, whose product is a red-pink azo dye. The amount of this dye is directly proportional to the amount of NO. The cells were cultured for 24 h in 24-well plates (1 mL/well, density 1 × 10^5 cells/mL); next, after withdrawing the culture fluid, the tested cannabinoids were added to the wells at a volume of 1 mL/well and the incubation was carried out for another 24 h. After the incubation, the culture media were collected and frozen at −80 °C for no longer than 1 month. For calibration and quantitative analysis, the standard curve was prepared using 0.5–25 μM sodium nitrite (NaNO2). Thawed and centrifuged (5000 rpm/5 min.) supernatant samples and the standard were poured into a 96-well flat-bottomed plate at 100 µL/well. Each sample was analyzed in triplicate. […] Finally, the absorbance of the samples was spectrophotometrically read at 570 nm using an EL800 Universal Microplate Reader (BioTek Instruments, Winooski, VT, USA).

CCD 841 CoTr cells = assay: Nitric oxide (NOx) release in CCD 841 CoTr culture, Griess method; conditions: CCD 841 CoTr normal cells, 0–200 μg/mL, 24 h
Protocol: In this spectrophotometric method, the stable end products (nitrate and nitrite) were analyzed in the normal and tumor culture supernatants after 24 h of incubation of the cells with the cannabinoids in the concentration range of 0–200 μg/mL. The Griess reaction was applied. This method involves a 2-step reaction, whose product is a red-pink azo dye. The amount of this dye is directly proportional to the amount of NO. The cells were cultured for 24 h in 24-well plates (1 mL/well, density 1 × 10^5 cells/mL); next, after withdrawing the culture fluid, the tested cannabinoids were added to the wells at a volume of 1 mL/well and the incubation was carried out for another 24 h. After the incubation, the culture media were collected and frozen at −80 °C for no longer than 1 month. For calibration and quantitative analysis, the standard curve was prepared using 0.5–25 μM sodium nitrite (NaNO2). Thawed and centrifuged (5000 rpm/5 min.) supernatant samples and the standard were poured into a 96-well flat-bottomed plate at 100 µL/well. Each sample was analyzed in triplicate. Subsequently, 100 µL/well of Griess reagent (1% sulfanilamide/0.1% N-(1-naphthyl)ethylenediamine dihydrochloride) in 3% H3PO4 was added to all wells and incubated at room temperature for 10 min. Finally, the absorbance of the samples was spectrophotometrically read at 570 nm using an EL800 Universal Microplate Reader (BioTek Instruments, Winooski, VT, USA).

SMILES | Cells in late apoptosis, more than in the control (HT29 cells [1]) | Cells in necrosis, more than in the control (HT29 cells [1]) | Percentage of cells in early apoptosis (HT29 cells [1]) | Percentage of cells in late apoptosis (HT29 cells [1]) | Percentage of cells in necrosis (HT29 cells [1]) | Reduction in the number of viable cells compared to the control (HT29 cells [1]) | viability at 25 µg/mL (HT29 cells [1]) | Effect on release of nitric oxide NOx (in words) (HT29 cells [2]) | Effect on release of nitric oxide NOx (in words) (CCD 841 CoTr cells)
CCCCCc1cc(O)cc(O)c1C/C=C(\C)CCC=C(C)C [abn-CBG, abnormal cannabigerol] | 68.83% | 19.03% | 3.65 ± 0.65 % | 71.86 ± 2.36 % | 19.75 ± 2.50 % | 90.42% | 4.74 ± 0.39% |  | 
CCCCCc1cc2c3c(c1)OC(C)(C)C1CCC(C)(CC31)O2 (centres unmarked) [CBT, cannabicitran] | 49.2% | 3.24% | 0.91 ± 0.16% | 52.23 ± 1.26 % | 3.96 ± 0.40 % | 52.25% | 42.9 ± 0.96% | statistically insignificant stimulating effect | reduced the level of this molecule
CCCCCc1cc(O)c2c(c1)OC(C)(CCC=C(C)C)C=C2 (centres unmarked) [CBC, cannabichromene] |  |  | 1.36 ± 0.18% | 6.84 ± 0.71 % | 1.18 ± 0.39% | 7.13% | 88 ± 2.34% | reduction in NOx levels with increasing cannabinoid concentration | reduction in NOx levels with increasing cannabinoid concentration
